Assay results as given in ChEMBL document CHEMBL1177743, “Symbiopolyol, a VCAM-1 inhibitor from a symbiotic dinoflagellate of the jellyfish Mastigias papua” (J Nat Prod, 2010).

What was measured:
[1] = molecular target: T1, Vascular cell adhesion protein 1 (Homo sapiens) (UniProt P19320); assay: Inhibition of VCAM1 in TNF-alpha/IL4-stimulated HUVEC assessed as inhibition of cell adhesion between HUVEC and Ramos cells at 8 uM after 20 hrs incubation relative to untreated control; format: cell-based
T1 sequence (whole entry): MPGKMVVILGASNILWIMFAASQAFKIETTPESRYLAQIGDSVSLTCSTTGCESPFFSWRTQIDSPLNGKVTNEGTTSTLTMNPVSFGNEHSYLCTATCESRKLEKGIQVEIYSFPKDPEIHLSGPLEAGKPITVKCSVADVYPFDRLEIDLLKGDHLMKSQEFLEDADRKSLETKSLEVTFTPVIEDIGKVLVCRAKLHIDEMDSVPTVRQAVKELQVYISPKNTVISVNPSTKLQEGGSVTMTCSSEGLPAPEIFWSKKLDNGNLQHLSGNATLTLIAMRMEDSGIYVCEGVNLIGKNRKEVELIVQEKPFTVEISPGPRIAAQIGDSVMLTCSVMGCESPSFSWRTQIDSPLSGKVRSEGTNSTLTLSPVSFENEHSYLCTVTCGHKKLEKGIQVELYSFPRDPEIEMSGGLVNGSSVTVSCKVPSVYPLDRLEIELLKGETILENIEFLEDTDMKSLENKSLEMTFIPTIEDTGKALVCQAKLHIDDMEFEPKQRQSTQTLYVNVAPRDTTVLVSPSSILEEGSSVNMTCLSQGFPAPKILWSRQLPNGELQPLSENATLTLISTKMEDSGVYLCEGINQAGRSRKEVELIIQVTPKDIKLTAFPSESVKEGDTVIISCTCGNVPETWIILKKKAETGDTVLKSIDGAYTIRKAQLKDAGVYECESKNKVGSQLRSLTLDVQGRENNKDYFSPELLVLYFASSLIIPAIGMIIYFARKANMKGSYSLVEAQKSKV

HUVEC [2] = assay: Inhibition of VCAM1 expression in TNF-alpha-stimulated HUVEC pretreated 30 mins before TNFalpha challenge for 18 hrs by ELISA; format: functional, cell-based; settings: Homo sapiens
HUVEC [3] = assay: Toxicity in HUVEC up to 12 uM; format: cell-based; settings: human

## C=CCC/C=C/C=C/C=C/CC/C=C/[C@@H](O)[C@H](O)[C@@H]1O[C@@H]([C@H](O)[C@@H](O)C(=C)CC[C@@H](O)[C@H]2C[C@@H](O)[C@@H](O)[C@H]([C@@H](O)[C@H](O)/C=C(\C)CC[C@H](O)C[C@H](O)[C@H](O)C(C)C(O)C(O)C/C=C/CC(O)/C=C/CCCCCOS(=O)(=O)[O-])O2)C[C@@H](O)[C@H]1O.[Na+] (stereo partly drawn) [SYMBIOPOLYOL]
[1]
  inhibition: 77%
HUVEC [2]
  IC50: 6.62 µM
HUVEC [3]
  Activity: Non-toxic
